Data taken from US20240382555A1, “PEPTIDES WITH ANTI-ANGIOGENIC ACTIVITY” (priority 2021, published 2024).

What was measured:
Format in all cases: cell-based, human
[1] = test system: HUVECs; test: Tube formation assay, HUVECs on growth factor-reduced Matrigel with pro-angiogenic stimuli; conditions: for anti-angiogenic activity (number of tubes/well): HUVECs, 50 ng/ml VEGF-A or FGF-2, 10 ng/ml peptide, FIG. 5
Description: Tube formation assays were performed as described in Caccuri F. et al., “Evolution toward beta common chain receptor usage links the matrix proteins of HIV-1 and its ancestors to human erythropoietin,” Proc Natl Acad Sci USA. 2021; 11810.
Briefly, 150 μl of Cultrex Basement Membrane Extract (Matrigel; 10 mg/ml) (Trevigen Inc., Gaithersburg, MD, USA) or reduced growth factor Matrigel (Trevigen Inc.) were transferred to prechilled 48-well culture plates. The plates were then incubated for 1 h at 37° C.
Cells were resuspended in EGM growth medium containing 10% FBS and seeded (5×10^4 per well). […] Capillary structures were photographed with a Hitachi KP-D50 camera and then quantified as the number of tubes/well.
In some experiments, HUVECs were stimulated with optimal concentrations of human pro-angiogenic molecules such as vascular endothelial growth factor-A (VEGF-A), fibroblast growth factor-2 (FGF-2), or interleukin-8 (IL-8). Experiments were conducted using nucleofected cells or cells stimulated with U94-derived peptides.
To evaluate the ability of the peptide of sequence SEQ ID No. 2 to influence the ability of HUVECs to respond to stimulation exerted by different angiogenic mediators, HUVECs were seeded on growth-reduced Matrigel in the absence (NT) or presence of optimal concentrations of different pro-angiogenic stimuli (VEGF-A, FGF-2, or IL-8) alone or in the presence of a control peptide (CTRL) or of the peptide of sequence SEQ ID No. 2 (KDKY).
HUVECs were seeded on reduced growth factor Matrigel-coated wells wells in complete medium containing 50 ng/ml of VEGF-A or FGF-2 alone or in combination with 10 ng/ml of the control peptide (CTRL), or KDKY, AKDY, KAKY, KDAY or KDKA.
HUVECs were seeded on reduced growth factor Matrigel-coated wells in complete medium containing 50 ng/ml of VEGF-A or FGF-2 alone or in combination with 10 ng/ml of CTRL, KDKY, DKY or DRY.

[2] = test system: SARS-CoV-2-infected HL-mECs; conditions: SARS-CoV-2-infected spheroids; FIG. 4
[3] = test system: SARS-CoV-2-infected HL-mECs; conditions: growth factor-reduced Matrigel; MOI 1; FIG. 3
[4] = test system: HUVECs; test: Spheroids assay, HUVEC spheroids in type I collagen gel with pro-angiogenic stimuli; conditions: HUVEC spheroids stimulated with VEGF-A, FGF-2 or IL-8; FIG. 2
Description: The assay was performed using nucleofected cells or cells stimulated with U94-derived peptides. Spheroids were generated by mixing HUVECs (1.5×10^5 cells/ml) with 5 mg/ml methylcellulose (Sigma-Aldrich) in EGM growth medium containing 10% FBS, bringing the final volume to 10 ml.
The cells (100 μl/well) were then added to 96-well plates (Greiner Bio-one, Kremsmünster, Austria) and incubated at 37° C., in a 5% CO2 atmosphere for 24 hours.
Separately, the collagen I gel solution (Rat Tail, Corning) was maintained on ice and neutralized by adding NaOH 0.1 M and PBS 10× to a final pH of 7.4.
Then, 24-well plates were coated with neutralized collagen (200 μl/well) and incubated in a humidified 5% CO2 incubator for 1 hour at 37° C.
The spheroids from the 96-well plates were collected in Eppendorf tubes and centrifuged at 4000×rpm for 5 to 10 seconds. When a clear pellet was distinguished, the supernatant was removed and the pellet was kept in a volume of about 100 μl of collagen I-neutralized solution.
Each collagen-spheroid mixture was rapidly added to pre-coated 24-well plates at 100 μl/well and incubated for 1 h. […]
Sprouting occurred from the spheroid core, which was photographed with a Hitachi KP-D50 camera, and the sprout number was counted with the spheroids similar sizes from three different wells of the plate. […]

ADKY [tetra-peptide, first amino acid of KDKY replaced by alanine]
anti-angiogenic activity (number of tubes/well) [1]: maintained potent anti-angiogenic activity

DRY
anti-angiogenic activity (number of tubes/well) [1]: able to block angiogenic activity

DKY
anti-angiogenic activity (number of tubes/well) [1]: able to block angiogenic activity

KDKY [SEQ ID No. 2]
SARS-CoV-2-induced angiogenesis (number of sprouts per spheroid) [2]: potently inhibited
angiogenic activity (number of tubes/well) of SARS-CoV-2-infected HL-mECs [3]: did not perform any angiogenic activity
angiogenic activity (tube formation, number of tubes/well) ([1]; HUVECs stimulated with VEGF-A, FGF-2 or IL-8, 8 hours after seeding on Matrigel, FIG. 1): significantly impaired
anti-angiogenic activity (number of tubes/well) [1]: able to block angiogenic activity
sprouting response (number of sprouts per spheroid) [4]: drastic reduction in the sprouting response
